In patent US20130102009A1, “SIRTUIN ACTIVATORS AND ACTIVATION ASSAYS” (priority 2010, published 2013):
Where “and” joins values, the source holds several entries; their conditions need not be identical. Identical values can stand only once. Like-named read-outs stand apart in the source and are kept apart here.

Target: T1, SIRT1 (Homo sapiens, UniProt Q96EB6)
T1 sequence (Q96EB6 1-747): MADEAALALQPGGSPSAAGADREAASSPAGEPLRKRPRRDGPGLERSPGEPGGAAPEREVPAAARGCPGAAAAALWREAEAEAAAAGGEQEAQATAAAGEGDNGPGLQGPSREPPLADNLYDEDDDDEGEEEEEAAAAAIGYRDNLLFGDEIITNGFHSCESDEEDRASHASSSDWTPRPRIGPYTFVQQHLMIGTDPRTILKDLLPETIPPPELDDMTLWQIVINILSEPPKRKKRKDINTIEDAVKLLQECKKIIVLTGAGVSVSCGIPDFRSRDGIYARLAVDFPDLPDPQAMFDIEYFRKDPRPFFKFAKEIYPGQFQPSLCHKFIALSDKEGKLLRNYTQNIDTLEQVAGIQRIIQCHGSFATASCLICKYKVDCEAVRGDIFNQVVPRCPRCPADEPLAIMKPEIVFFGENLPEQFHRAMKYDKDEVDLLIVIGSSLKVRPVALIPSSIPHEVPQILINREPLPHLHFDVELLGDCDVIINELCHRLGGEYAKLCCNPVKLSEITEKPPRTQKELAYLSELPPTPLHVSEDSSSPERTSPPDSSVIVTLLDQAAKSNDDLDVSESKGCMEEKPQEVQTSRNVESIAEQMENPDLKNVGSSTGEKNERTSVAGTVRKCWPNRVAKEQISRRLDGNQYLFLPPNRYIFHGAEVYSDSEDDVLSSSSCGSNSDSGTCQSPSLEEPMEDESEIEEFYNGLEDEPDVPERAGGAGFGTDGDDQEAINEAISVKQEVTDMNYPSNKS
Assay: Mass spectroscopic kinetic assay of SIRT1-catalyzed deacetylation of 20mer peptides
Assay type: biochemical
Protocol: Bovine glutamate dehydrogenase (GDH), α-ketoglutarate, NADH and NAD^+ were from Sigma Chemical Company. […] The nicotinamidase PNC1 was prepared as described by Denu and colleagues (Smith et al. (2009) Anal Biochem 394, 101-109). Our collection of approximately 5,000 SIRT1 activators was screened using the BioTrove mass spectrometry system, as previously described (Milne et al. (2007) Nature 450, 712-716). […] Compounds were present at 10 μM, and the assays were conducted in a pH 7.4 buffer containing 150 mM Tris, 5 mM DTT, 1% DMSO, and 0.025% BSA. To determine the interaction of STACs with SIRT1 two kinetic methods were employed. […] (2007) Nature 450, 712-716). The other, used with peptides of general structure […], used a continuous, enzyme-coupled method reported previously (Smith et al. (2009) Anal Biochem 394, 101-109), in which the SRT1 product nicotinamide is first converted into nicotinic acid and ammonia by the action of PNC1, and the ammonia then used by GDH to convert α-ketoglutarate into glutamate. This reaction occurs with oxidation of NADH to NAD^+ which is accompanied by a change in absorbance at 340 nm (Δε340=-6,200 M^-1 cm^-1). Activator titrations were plotted as relative velocity (i.e., the ratio of vx, velocity in the presence of activator X, to vo, velocity in the absence of activator) vs. [X]o, initial concentration of activator, and fit by nonlinear least-squares to the mechanism-independent expression for enzyme activation of […] the maximum relative velocity (i.e., vx/vo at infinite [X]o) and EC50 is the activator concentration at which vx/vo=(RVmax-1)/2. EC50 is a function of the kinetic mechanisms of both catalysis and activation, and the concentrations of substrates.

Compound: CCCCc1nc(NC2CCNCC2)cc(C(=O)Nc2ccccc2-c2nc3cc(COC4CCNCC4)cnc3s2)n1 [Compound 10, 2-butyl-6-(piperidin-4-ylamino)-N-(2-(6-((piperidin-4-yloxy)methyl)thiazolo[5,4-b]pyridin-2-yl)phenyl)pyrimidine-4-carboxamide]
- RVmax (maximum relative velocity) (substrate TAMRA-peptide, fit to eq (1)): 6.8±0.3
- EC50 (substrate TAMRA-peptide, fit to eq (1), read-out: EC50 (Kx) for activation of SIRT1-catalyzed deacetylation of TAMRA-peptide): 3.9 ± 0.5 µM
- Effect on the deacetylation of des(biotin,TAMRA)-peptide (substrate des(biotin,TAMRA)-peptide): none activate
- RVmax for activation of the deacetylation of desTAMRA-peptide (substrate desTAMRA-peptide, fit to eq (1)): ~2.3
- RVmax for activation of the deacetylation of desTAMRA-peptide (substrate desTAMRA-peptide, fit to eq (1), listed as 22): 2.6 ± 0.1
- EC50 (substrate desTAMRA-peptide, fit to eq (1), read-out: EC50 for activation of the deacetylation of desTAMRA-peptide): ~2 µM and 1.7 µM
- Ki,app for inhibition of the deacetylation of p53-20 mer (substrate p53-20 mer, RV=1/(1+([X]o/Ki,app))): inhibit
- Ki (substrate p53-20 mer, RV=1/(1+([X]o/Ki,app)), read-out: Ki,app for inhibition of the deacetylation of p53-20 mer): 9 µM
